Paper PMC6979384, “Characterization of the plant homeodomain (PHD) reader family for their histone tail interactions” (Epigenetics & Chromatin, 2020)

Legend:
Experiment in all cases: Histone peptide microarray
Assay type in all cases: binding, human
Settings in all cases: sheet "Array Heatmap"; GST-tagged reader; histone peptide array, total n = 4
ING3 = test system: ING3
How it was run: (§1)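 A peptide microarray holding 293 synthetic histone peptides with individual or combinatorial modifications was probed with each GST-PHD protein at 0.5 μM. Values represent mean intensity (±SD) from four replicates.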

DIDO1 = test system: DIDO1
How it was run: as §1

PHF13 = test system: PHF13
How it was run: as §1

ING5 = test system: ING5
How it was run: as §1

ING2 = test system: ING2
How it was run: as §1

PHRF1 (RP) = test system: PHRF1 (RP)
How it was run: as §1

SP140L = test system: SP140L
How it was run: as §1

CHD5 (PPCC) = test system: CHD5 (PPCC)
How it was run: as §1

PHF2 = test system: PHF2
How it was run: as §1

TAF3 = test system: TAF3
How it was run: as §1

AIRE (PP) = test system: AIRE (PP)
How it was run: as §1

PHF21A = test system: PHF21A
How it was run: as §1

KDM4C (TTP) = test system: KDM4C (TTP)
How it was run: as §1

ING1 = test system: ING1
How it was run: as §1

KDM5A (1) = test system: KDM5A (1)
How it was run: as §1

TRIM66 (PB) = test system: TRIM66 (PB)
How it was run: as §1

DPF2 (PPC2W2) = test system: DPF2 (PPC2W2)
How it was run: as §1

PHF8 = test system: PHF8
How it was run: as §1

CHD4 (PPCC) = test system: CHD4 (PPCC)
How it was run: as §1

RAG2 = test system: RAG2
How it was run: as §1

CHD5 (PCC) = test system: CHD5 (PCC)
How it was run: as §1

KDM5A (3) = test system: KDM5A (3)
How it was run: as §1

KDM5B (3) = test system: KDM5B (3)
How it was run: as §1

BPTF (PB) = test system: BPTF (PB)
How it was run: as §1

KDM5B (1) = test system: KDM5B (1)
How it was run: as §1

ING4 = test system: ING4
How it was run: as §1

MORC3 (CW) = test system: MORC3 (CW)
How it was run: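 Readout is array binding signal, reported as the mean and standard deviation over four replicates. Each purified GST-fused PHD domain was incubated at 0.5 μM with a library of 293 modified histone peptides.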

PHF23 = test system: PHF23
How it was run: as §1

MLL5 = test system: MLL5
How it was run: as §1

KDM7A = test system: KDM7A
How it was run: as §1

BAZ2B = test system: BAZ2B
How it was run: as §1

Substance | Array Heatmap signal, ING3 (ING3) | Array Heatmap signal, DIDO1 (DIDO1) | Array Heatmap signal, PHF13 (PHF13) | Array Heatmap signal, ING5 (ING5) | Array Heatmap signal, ING2 (ING2) | Array Heatmap signal, PHRF1 (RP) (PHRF1 (RP)) | Array Heatmap signal, SP140L (SP140L) | Array Heatmap signal, CHD5 (PPCC) (CHD5 (PPCC)) | Array Heatmap signal, PHF2 (PHF2) | Array Heatmap signal, TAF3 (TAF3) | Array Heatmap signal, AIRE (PP) (AIRE (PP)) | Array Heatmap signal, PHF21A (PHF21A) | Array Heatmap signal, KDM4C (TTP) (KDM4C (TTP)) | Array Heatmap signal, ING1 (ING1) | Array Heatmap signal, KDM5A (1) (KDM5A (1)) | Array Heatmap signal, TRIM66 (PB) (TRIM66 (PB)) | Array Heatmap signal, DPF2 (PPC2W2) (DPF2 (PPC2W2)) | Array Heatmap signal, PHF8 (PHF8) | Array Heatmap signal, CHD4 (PPCC) (CHD4 (PPCC)) | Array Heatmap signal, RAG2 (RAG2) | further results
H3R17me2a + K18ac (1-25): H3 1-25 | 0.4176 | 0.5785 | 0.4521 | 0.251 | 0.5776 | 0.7492 | 0.2916 | 0.4057 | 0.4874 | 0.2141 | 0.3677 | 0.3605 | 0.324 | 0.4981 | 0.3724 | 0.6221 | 0.608 | 0.2767 | 0.4858 | 0.2079 | Array Heatmap signal, CHD5 (PCC) (CHD5 (PCC)): 0.615; Array Heatmap signal, KDM5A (3) (KDM5A (3)): 0.5578; Array Heatmap signal, KDM5B (3) (KDM5B (3)): 0.4124; Array Heatmap signal, BPTF (PB) (BPTF (PB)): 0.2769; Array Heatmap signal, KDM5B (1) (KDM5B (1)): 0.6531; Array Heatmap signal, ING4 (ING4): 0.3381; Array Heatmap signal, MORC3 (CW) (MORC3 (CW)): 0.4929; Array Heatmap signal, PHF23 (PHF23): 0.4823; Array Heatmap signal, MLL5 (MLL5): 0.4712; Array Heatmap signal, KDM7A (KDM7A): 0.2298; Array Heatmap signal, BAZ2B (BAZ2B): 0.3556
H3R17me2a: H3 1-20 [Peptide H3R17me2a] | 0.3691 | 0.6933 | 0.4423 | 0.2247 | 0.6139 | 0.5177 | 0.2774 | 0.3709 | 0.6186 | 0.2956 | 0.3243 | 0.2924 | 0.2915 | 0.5124 | 0.3023 | 0.5152 | 0.5665 | 0.337 | 0.4461 | 0.3136 | Array Heatmap signal, CHD5 (PCC) (CHD5 (PCC)): 0.5481; Array Heatmap signal, KDM5A (3) (KDM5A (3)): 0.5532; Array Heatmap signal, KDM5B (3) (KDM5B (3)): 0.4098; Array Heatmap signal, BPTF (PB) (BPTF (PB)): 0.2765; Array Heatmap signal, KDM5B (1) (KDM5B (1)): 0.4837; Array Heatmap signal, ING4 (ING4): 0.3252; Array Heatmap signal, MORC3 (CW) (MORC3 (CW)): 0.4952; Array Heatmap signal, PHF23 (PHF23): 0.499; Array Heatmap signal, MLL5 (MLL5): 0.5506; Array Heatmap signal, KDM7A (KDM7A): 0.2428; Array Heatmap signal, BAZ2B (BAZ2B): 0.3052
H3R17me2s: H3 1-20 [Peptide H3R17me2s] | 0.447 | 0.6492 | 0.5969 | 0.3275 | 0.6161 | 0.8026 | 0.3428 | 0.5108 | 0.5815 | 0.274 | 0.4113 | 0.4345 | 0.4268 | 0.5076 | 0.4442 | 0.6637 | 0.6998 | 0.3293 | 0.5449 | 0.2456 | Array Heatmap signal, CHD5 (PCC) (CHD5 (PCC)): 0.7264; Array Heatmap signal, KDM5A (3) (KDM5A (3)): 0.5756; Array Heatmap signal, KDM5B (3) (KDM5B (3)): 0.5222; Array Heatmap signal, BPTF (PB) (BPTF (PB)): 0.3293; Array Heatmap signal, KDM5B (1) (KDM5B (1)): 0.601; Array Heatmap signal, ING4 (ING4): 0.4307; Array Heatmap signal, MORC3 (CW) (MORC3 (CW)): 0.5429; Array Heatmap signal, PHF23 (PHF23): 0.5417; Array Heatmap signal, MLL5 (MLL5): 0.5344; Array Heatmap signal, KDM7A (KDM7A): 0.306; Array Heatmap signal, BAZ2B (BAZ2B): 0.4477
